Calls of active or inactive are those of the source.
Legend:
[1] = test system: Streptococcus sp. 'group A'; assay: growth inhibition of control SK(-) GAS strain, dose response, counter-screen for streptokinase expression inhibitor project, luminescence, kanamycin, BacTiterGlo, confirmation (AID 1900); format: functional, organism-based
Streptokinase A = biological target: T1, Streptokinase A (Streptococcus pyogenes serotype M1, UniProt P10520); assay: S. pyogenes streptokinase expression inhibitors, potency, dose response, plasminogen activation absorbance, OD405 (AID 1914); format: functional, Streptococcus pyogenes M1 GAS;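 note: secreted streptokinase activity via plasminogen activation per viability signal from cell pellet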
T1 sequence (P10520 whole entry): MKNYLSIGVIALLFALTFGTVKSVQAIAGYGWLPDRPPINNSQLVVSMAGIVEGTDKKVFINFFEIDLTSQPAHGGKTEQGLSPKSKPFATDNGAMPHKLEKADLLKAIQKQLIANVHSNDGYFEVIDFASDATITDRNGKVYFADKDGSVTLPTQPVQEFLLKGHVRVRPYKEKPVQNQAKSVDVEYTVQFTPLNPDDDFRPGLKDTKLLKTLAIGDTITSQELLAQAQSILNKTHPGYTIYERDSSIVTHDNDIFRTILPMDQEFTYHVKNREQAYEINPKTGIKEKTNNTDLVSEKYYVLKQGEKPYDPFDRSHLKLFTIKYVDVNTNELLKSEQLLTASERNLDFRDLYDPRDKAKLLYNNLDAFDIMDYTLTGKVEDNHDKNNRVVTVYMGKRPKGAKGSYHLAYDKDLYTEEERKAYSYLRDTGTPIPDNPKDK

Streptococcus = assay: Group A Streptococcus viability loss, dose response, counter-screen for streptokinase expression inhibitor project, luminescence, BacTiterGlo (AID 1915); format: functional, organism-based;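 note: potency for reduction of bacterial viability or growth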
[2] = inhibitors of intracellular T. cruzi replication, confirmation, NIH3T3 host cells, beta-gal luminescence (AID 2044); format: functional, cell-based;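 note: intracellular parasites grown in NIH/3T3 mouse fibroblasts as host cells; luminescent beta-galactosidase reporter signal from transgenic T. cruzi replicating inside host cells; inhibitors lower the luminescence signal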
[3] = cytotoxicity toward NIH3T3 fibroblasts, dose response, counter-screen, cell-based, ATP luminescence, mouse fibroblasts (AID 2010); format: functional;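 note: cells exposed to compound for about 90 hours before reading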
[4] = biological target: T2, Rac GTPase-activating protein 1 (Homo sapiens, UniProt Q9H0H5); assay: MgcRacGAP GTPase-activating activity inhibitors, confirmation, biochemical, ADP Hunter fluorescence, primary and confirmatory (AID 624330); format: functional
T2 sequence (Q9H0H5 whole entry): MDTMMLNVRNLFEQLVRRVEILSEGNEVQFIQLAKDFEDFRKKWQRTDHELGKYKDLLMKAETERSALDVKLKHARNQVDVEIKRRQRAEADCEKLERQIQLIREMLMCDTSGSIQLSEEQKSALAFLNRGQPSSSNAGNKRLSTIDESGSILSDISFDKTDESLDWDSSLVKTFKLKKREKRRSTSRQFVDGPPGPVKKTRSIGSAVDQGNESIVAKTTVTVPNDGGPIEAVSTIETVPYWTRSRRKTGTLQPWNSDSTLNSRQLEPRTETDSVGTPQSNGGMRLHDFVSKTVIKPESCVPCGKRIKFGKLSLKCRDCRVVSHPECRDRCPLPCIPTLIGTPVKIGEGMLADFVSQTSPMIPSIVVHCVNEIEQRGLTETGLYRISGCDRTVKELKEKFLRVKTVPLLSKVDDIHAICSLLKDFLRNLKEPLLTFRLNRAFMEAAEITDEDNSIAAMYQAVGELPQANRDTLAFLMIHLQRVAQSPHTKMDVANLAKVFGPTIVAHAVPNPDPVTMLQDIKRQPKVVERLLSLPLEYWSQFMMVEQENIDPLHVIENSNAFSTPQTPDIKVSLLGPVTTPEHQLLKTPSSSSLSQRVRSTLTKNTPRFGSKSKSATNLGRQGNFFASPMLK

Cytochrome P450 2C9 = Cytochrome P450 2C9 (Homo sapiens, UniProt P11712)
Cytochrome P450 2C19 = Cytochrome P450 2C19 (Homo sapiens, UniProt P33261); assay: Cytochrome panel assay with activity outcomes. Panel member name: p450-cyp2c19 Compounds with AC50 equal or less than 10 uM are considered active; format: functional
[5] = biological target: T3, Heat shock factor protein 1 (Mus musculus, UniProt P38532); assay: inhibition of MG132-induced HSE-luciferase signal, confirmation, cell-based, NIH3T3, luminescence, dose retest (AID 2382); format: functional;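 note: NIH3T3 fibroblasts with HSF1-driven luciferase reporter stressed by proteasome inhibitor MG132; luminescence from HSF1-driven luciferase expression after 8 hours of MG132 stress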
T3 sequence (P38532 whole entry): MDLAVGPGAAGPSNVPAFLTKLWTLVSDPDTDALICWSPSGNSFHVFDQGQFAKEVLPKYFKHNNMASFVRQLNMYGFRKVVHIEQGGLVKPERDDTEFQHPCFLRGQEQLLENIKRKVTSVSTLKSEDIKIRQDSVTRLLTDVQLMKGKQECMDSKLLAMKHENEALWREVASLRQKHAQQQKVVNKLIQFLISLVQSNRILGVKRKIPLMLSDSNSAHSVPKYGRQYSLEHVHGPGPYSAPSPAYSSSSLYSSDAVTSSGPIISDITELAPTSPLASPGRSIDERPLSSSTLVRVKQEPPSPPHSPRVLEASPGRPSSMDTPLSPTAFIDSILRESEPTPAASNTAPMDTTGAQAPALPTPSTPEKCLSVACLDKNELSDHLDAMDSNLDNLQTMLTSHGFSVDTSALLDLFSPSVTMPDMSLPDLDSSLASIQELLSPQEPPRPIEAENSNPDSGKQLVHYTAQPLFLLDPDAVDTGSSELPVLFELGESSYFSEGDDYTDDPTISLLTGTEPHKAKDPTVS

Cytochrome P450 2C9, sequence (P11712 whole entry): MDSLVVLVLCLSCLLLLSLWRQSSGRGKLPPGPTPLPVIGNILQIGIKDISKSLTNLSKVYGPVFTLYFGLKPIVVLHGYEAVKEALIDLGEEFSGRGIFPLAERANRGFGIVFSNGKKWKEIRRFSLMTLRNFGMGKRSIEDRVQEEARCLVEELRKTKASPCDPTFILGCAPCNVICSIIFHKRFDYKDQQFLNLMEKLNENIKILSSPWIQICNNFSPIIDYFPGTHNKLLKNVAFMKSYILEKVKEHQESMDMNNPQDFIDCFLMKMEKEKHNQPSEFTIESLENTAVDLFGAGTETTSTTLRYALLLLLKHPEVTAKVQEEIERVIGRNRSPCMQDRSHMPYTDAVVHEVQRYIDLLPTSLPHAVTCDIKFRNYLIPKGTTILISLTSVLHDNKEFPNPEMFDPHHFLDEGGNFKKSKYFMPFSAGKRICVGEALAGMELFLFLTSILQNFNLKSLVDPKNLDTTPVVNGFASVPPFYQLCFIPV
Cytochrome P450 2C19, sequence (P33261 whole entry): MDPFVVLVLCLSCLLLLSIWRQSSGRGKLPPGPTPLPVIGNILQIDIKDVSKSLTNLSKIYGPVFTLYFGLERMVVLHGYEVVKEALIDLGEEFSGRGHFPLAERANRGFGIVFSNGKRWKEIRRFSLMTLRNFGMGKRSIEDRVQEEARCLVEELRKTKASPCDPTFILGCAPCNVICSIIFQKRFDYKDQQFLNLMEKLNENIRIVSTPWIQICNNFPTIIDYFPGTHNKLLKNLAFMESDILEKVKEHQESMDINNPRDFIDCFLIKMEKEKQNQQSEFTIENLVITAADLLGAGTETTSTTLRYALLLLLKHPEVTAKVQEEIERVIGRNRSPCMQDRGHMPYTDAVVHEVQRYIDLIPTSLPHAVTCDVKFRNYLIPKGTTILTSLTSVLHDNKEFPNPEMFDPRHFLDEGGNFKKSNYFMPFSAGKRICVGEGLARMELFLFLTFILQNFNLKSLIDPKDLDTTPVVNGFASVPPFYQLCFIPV

CC(OC(=O)c1ccc(NC(=O)CC#N)cc1)C(=O)NC(=O)NC1CCCCC1 (stereo unspecified)
EC50 [1]: 57.5 µM (active) | EC50 (Streptokinase A): > 150 µM (not active) | EC50 (Streptococcus): > 150 µM (not active)

Cc1ccsc1/C=C(\C(=O)c1ccc(OC(C)C)cc1)c1nc2ccccc2o1
EC50 [2]: 1.69 µM (active) | EC50 [3]: > 60 µM (inconclusive)

Cc1ccc(/C=C/C2=NN(Cc3ccc(Cl)c(Cl)c3)C(=O)CC2)cc1
EC50 [1]: 17.2 µM (active) | EC50 (Streptokinase A): 24.3 µM (active) | EC50 (Streptococcus): 50.6 µM (active)

COc1cc(/C=C/C(=O)OCC(=O)c2ccc[nH]2)ccc1O
IC50 [4]: 32.2 µM (active)

Cc1ccc(NC(=S)N=Nc2c(O)[nH]c3ccccc23)cc1
EC50 [1]: 1.22 µM (active) | EC50 (Streptokinase A): > 150 µM (not active) | EC50 [2]: 2.17 µM (active) | EC50 [3]: 4.31 µM (active) | EC50 (Streptococcus): 6.61 µM (active)

Cc1ccc(CN2CCN(Cc3ccco3)CC2)cc1
IC50 [4]: 72.7 µM (active)

COc1ccc(Oc2nc(-c3ccccn3)ncc2OC)cc1
EC50 [1]: > 150 µM (not active) | EC50 (Streptokinase A): > 150 µM (not active) | EC50 (Streptococcus): > 150 µM (not active)

COC(=O)[C@@]12CCCCN1[C@H](c1ccc(-c3cccc(Cl)c3)c(OC)c1)[C@@H]1C(=O)N(C)C(=O)[C@@H]12
EC50 [2]: 2.48 µM (active) | EC50 [3]: > 60 µM (not active)

CC(C)Cc1ccc(CN2CCCC(NC(=O)c3cnc4ccccn4c3=O)C2)cc1 (stereo unspecified)
EC50 [2]: 0.131 µM (active) | EC50 [3]: 26.7 µM (active)

CC1CC(C)CN(c2ccc(C(=O)NCc3ccc4c(c3)OCO4)cc2[N+](=O)[O-])C1 (stereo unspecified)
EC50 [2]: 1.1 µM (active) | EC50 [3]: > 60 µM (not active)

C[C@H]1COc2c(C3(N)CC3)c(F)cc3c(=O)c(C(=O)O)cn1c23 [PAZUFLOXACIN]
EC50 [1]: 7.22 µM (active) | EC50 (Streptococcus): 6.74 µM (active)

CCc1ccc(NC(=O)CNCc2ccc(OC)c(OC)c2)cc1
IC50 [4]: 131 µM (active)

COCCCNCCOc1ccc(C(C)(C)c2ccccc2)cc1
EC50 [2]: 0.611 µM (active) | EC50 [3]: 7.83 µM (active)

CSc1ccc(CNc2ccc(C)c(C)c2)cc1
AC50 (Cytochrome P450 2C9): 14.1 µM (inconclusive)

COc1ccc(C(=O)NCC(=O)OCCCOC(=O)CNC(=O)c2ccc(OC)c(OC)c2)cc1OC
EC50 [1]: > 150 µM (not active) | EC50 (Streptokinase A): > 150 µM (not active) | EC50 (Streptococcus): > 150 µM (not active)

O=C(CP(=O)(c1ccccc1)c1ccccc1)Nn1cnnc1
AC50 (Cytochrome P450 2C19): inconclusive

Clc1cc(Cl)c(OCCCCn2cncn2)c(Cl)c1
IC50 [4]: 156 µM (active)

Fc1ccc(-c2cc(-c3ccccc3)nc(-n3cccn3)n2)cc1
EC50 [5]: > 195 µM (not active)

CCOC(=O)c1ccc(Cl)c(NC(=O)c2cccnc2)c1
EC50 [5]: 30.8 µM (active)

COc1ccc(S(=O)(=O)N2CCN=C2SCc2cccc(C)c2)cc1
EC50 [1]: > 150 µM (not active) | EC50 (Streptokinase A): 46.6 µM (inconclusive) | EC50 (Streptococcus): > 150 µM (not active)

COc1ccc(C2C(Oc3ccccc3)C(=O)N2c2cc(C)ccc2C)cc1OC (stereo unspecified)
EC50 [2]: 2.24 µM (active) | EC50 [3]: > 60 µM (not active)

O=c1c(-c2cc(F)cc(F)c2)nc2cnc(N3CCNCC3)nc2n1Cc1ccc(F)cc1
AC50 (Cytochrome P450 2C9): 12.6 µM (inconclusive)

Cc1cc(C)c(/N=C2\SCC(=O)N2Cc2ccco2)c(C)c1
EC50 [5]: > 195 µM (not active)

O=C(Nc1ccc2[nH]c(-c3cccnc3)nc2c1)c1ccccc1F
EC50 [5]: > 195 µM (not active)

c1ccn2c(SCc3ccc4c(c3)OCO4)nnc2c1
EC50 [5]: > 195 µM (not active)

O=C(Nc1ccc(N2CCCC2)c(Cl)c1)c1ccc2c(c1)OCCO2
EC50 [2]: 0.555 µM (active) | EC50 [3]: > 30 µM (not active)

Cc1ccc(CNC(=O)CSc2nc3c(sc4ccccc43)c(=O)n2CCCN2CCCC2)cc1
EC50 [2]: 1.5 µM (active) | EC50 [3]: 32.5 µM (active)

CC(C)C1Cc2c(sc3[nH]c(=S)n(Cc4ccccc4)c(=O)c23)CO1 (stereo unspecified)
EC50 [1]: 2.15 µM (active) | EC50 (Streptokinase A): > 150 µM (not active) | EC50 (Streptococcus): 33.4 µM (active)

COc1cccc(CN2CCC(n3nccc3NC(=O)CCCc3ccccc3)CC2)c1O
EC50 [5]: > 195 µM (not active)

Cc1ccccc1CN1CCN(C(=O)CC(C)C)CC1
EC50 [5]: > 195 µM (not active)

COC(=O)CCNC(=O)c1ccc2nc(Cc3ccc(OC)cc3)oc2c1
EC50 [5]: > 195 µM (not active)

CCCCNC(=O)C(=O)N/N=C/c1ccc(C(=O)OC)cc1
EC50 [5]: > 195 µM (not active)

CCOC(=O)C1=C(Nc2ccccc2)CC(C)(O)C(C(=O)OCC)C1c1ccccc1 (stereo unspecified)
EC50 [2]: > 60 µM (not active) | EC50 [3]: > 60 µM (not active)

Nc1ccc(-c2ccc(Nc3cc(S(=O)(=O)O)c(N)c4c3C(=O)c3ccccc3C4=O)cc2)c(S(=O)(=O)O)c1
AC50 (Cytochrome P450 2C9): 6.31 µM (inconclusive)

CCn1c2ccccc2n2c(=O)c(=O)n(CC(=O)Nc3ccc(C(C)C)cc3)nc12
EC50 [5]: > 195 µM (not active)

CCOC(=O)N1CCC(NC(=O)CN2C(=O)CSc3nc(C)cc(C)c32)CC1
EC50 [5]: > 195 µM (not active)

Cc1ccc(/C=C(\NC(=O)c2ccccc2)C(=O)N2CCCC2C(=O)O)cc1 (stereo unspecified)
EC50 [5]: > 195 µM (not active)

COc1cc(/C=N\NC(=O)c2ccc(Cn3cc(Br)c([N+](=O)[O-])n3)o2)cc(OC)c1O
EC50 [1]: 2.67 µM (active) | EC50 (Streptococcus): 4.9 µM (active)

O=C(c1ccc(N2CCCCC2)c([N+](=O)[O-])c1)N(Cc1ccccc1)c1ccccn1
AC50 (Cytochrome P450 2C9): 7.94 µM (inconclusive)

NC(=O)CSc1nc2sc(-c3ccccc3)cc2c(=O)n1N
AC50 (Cytochrome P450 2C9): 3.55 µM (inconclusive)

Nc1nc(CSc2ncn(-c3ccccc3)n2)cs1
EC50 [5]: > 195 µM (not active)

COc1ccc(NC2CCCN(C(=O)c3cccc(N(C)C)c3)C2)cc1 (stereo unspecified)
IC50 [4]: 84.9 µM (active)

COc1cc(/C=C/CN2CCC(Oc3ccc(C(=O)N4CCCC4)cc3)CC2)ccc1O
IC50 [4]: 81.2 µM (active)

O=C1c2cccc3c(Nc4ccccc4Cl)c([N+](=O)[O-])cc(c23)C(=O)N1CCO
EC50 [2]: 0.519 µM (active) | EC50 [3]: > 60 µM (not active)

NNC(=O)c1nn(-c2ccc(Cl)cc2)cc1O
EC50 [5]: 27 µM (active)

C[C@H](CO)NC(=O)[C@H](C)[C@@H]1C[C@@]1(C)[C@@H](NC(=O)OCc1ccccc1)c1ccccc1
AC50 (Cytochrome P450 2C9): 39.8 µM (inconclusive)

Cc1cc(OCC(=O)Nc2sc3c(c2C#N)CC(C)(C)NC3(C)C)c(C(C)C)cc1Cl
EC50 [5]: > 195 µM (not active)

COc1ccc(NC(=O)C(NC(=O)CNC(C)=O)c2ccc(C)cc2)cc1 (stereo unspecified)
EC50 [5]: > 195 µM (not active)

CCc1ccc(OCC(=O)NC(N=C(S)Nc2ccccc2C)C(Cl)(Cl)Cl)cc1 (stereo unspecified)
EC50 [2]: 3.62 µM (active) | EC50 [3]: > 60 µM (not active)

O=C(c1cccc(F)c1)N1CCC[C@@]2(CCN(c3cccc(-c4ccccc4)c3)C2)C1
AC50 (Cytochrome P450 2C9): 20 µM (inconclusive)

O=C(C1CCCN(S(=O)(=O)Cc2ccccc2)C1)N1CCc2ccccc21 (stereo unspecified)
EC50 [5]: > 195 µM (not active)

O=C(Nc1ccccc1)NC1CC2CCC(C1)N2 (stereo unspecified)
EC50 [5]: > 195 µM (not active)
